{"source": "patent US20140288113A1", "about": "“Extended Release Compositions Comprising Hydrocodone And Acetaminophen For Rapid Onset And Prolonged Analgesia That May Be Administered Without Regard To Food” (MALLINCKRODT LLC, priority 2013, published 2014)", "key": {"hepatic GSH [1]": {"system": "hepatic GSH", "test": "Hepatic glutathione depletion after acetaminophen in Swiss mice (Brzeznicka and Piotrowski 1989)", "format": "in vivo", "excerpt": "The bioequivalence level is 95%."}, "hepatic GSH [2]": {"system": "hepatic GSH", "conditions": "mice, cited from earlier work"}}, "data": [{"compound": "CC(=O)Nc1ccc(O)cc1", "note": "[acetaminophen]", "values": [{"measurement": "safety exposure ratio compared with human levels (1.3 g/day, 70 kg)", "setting": "hepatic GSH [1]; Swiss mice 400 mg/kg", "result": 22, "unit": "fold"}, {"measurement": "safety exposure ratio compared with human levels (1.3 g/day, 70 kg)", "setting": "hepatic GSH [1]; Swiss mice 600 mg/kg", "result": 32, "unit": "fold"}, {"measurement": "time after administration at which circulating hepatic GSH changes began", "setting": "hepatic GSH [2]; 100 mg/kg to 600 mg/kg", "result": "≤ 15", "unit": "min"}, {"measurement": "time after injection of minimum GSH level", "setting": "hepatic GSH [2]; all dose groups", "result": 2, "unit": "h"}]}]}
